From patent publication US20180028478A1, “ANTIVIRAL COMPOSITIONS DIRECTED AGAINST THE NUCLEOPROTEIN OF INFLUENZA VIRUSES” (priority 2011, published 2018) come the findings set out here.

Molecules are shown by their SMILES.

Among the targets are NP Y148A (Influenza A virus, UniProt P15682, Y148A); NP (Influenza A virus, UniProt P15682, A237T/A472T/G34D/M105R/P283S); NP R416A mutant (Influenza A virus, UniProt P15682, R416A).
A further assay has as its target NP R152A (Influenza A virus, UniProt P15682, R152A). Format: binding, type-A Influenza virus.
For another assay, the target named is NP WT (Influenza A virus, UniProt P15682, A237T/A472T/G34D/M105R/P283S). Format: binding, type-A Influenza virus (H1N1 A/WSN/1933).
The target in assay [1] is T1, NP R361A (Influenza A virus, UniProt P15682, R361A).
Assay [2] concerns the target T1, NP R361A. The source holds these as a separate data set.
Assay [3] has as its target nucleoprotein of SEQ ID NO: 2 (Influenza A virus, UniProt P15682, A237T/A472T/G34D/M105R/P283S).

Take `COc1ccc2cc(C(CC(=O)O)CC(=O)O)ccc2c1` [Naproxen A]: the “effect of R152A mutation on affinity” value on NP R152A was “reduces the affinity”. In addition, the “competition with the association of RNA to NP (signal of NP-RNA complex)” value at NP WT was “biphasic effect”.

Regarding `COc1ccc2cc(-c3c(C(=O)O)cccc3C(=O)O)ccc2c1` [Naproxen c0], on NP R152A, the “effect of R152A mutation on affinity” value is recorded as “reduces the affinity”.

In the case of `COc1ccc2cc(C(C)C(=O)O)ccc2c1` (centres unmarked) [Naproxen], on NP Y148A, the “competition with the RNA” value is given as “does not compete with the RNA any longer”. Further, the “direct attachment to surface-bound protein” value at NP R361A [1] is listed as “but not to R361A”; on NP, “direct attachment”. The “competition with the RNA / attachment” value at NP R361A [2] is listed as “does not compete with the RNA any longer”. In addition, at NP R152A, the “effect of R152A mutation on affinity” value is given as “no effect”. On NP R416A mutant, the “attachment to R416A mutant” value is recorded as “does not fix”. Besides, at NP WT, the “competition with the association of RNA to NP (signal of NP-RNA complex)” value was “signal decrease”. The “beacon fluorescence in the presence of compound” value in assay [3] was “fluorescence decreases”.
